Laboratory results as given in patent publication US10435398B2, “Oxazole orexin receptor antagonists” (MERCK SHARP & DOHME CORP., priority 2014, dated 2019).

Assays:
[1] = target: human orexin-1 receptor (Homo sapiens (Human), UniProt O43613); assay: FLIPR Ca2+ Flux Assay, hOX1R; assay type: cell-based; conditions: CHO cells expressing human orexin-1 receptor; agonist 70 pM Ala-6,12 human orexin-A
Description: (§1) The utility of the compounds in accordance with the present invention as orexin receptor OX1R and/or OX2R antagonists may be readily determined without undue experimentation by methodology well known in the art, including the “FLIPR Ca^2+ Flux Assay” (Okumura et al., Biochem. Biophys. Res. Comm. 280:976-981, 2001). In a typical experiment the OX1 and OX2 receptor antagonistic activity of the compounds of the present invention was determined in accordance with the following experimental method. For intracellular calcium measurements, Chinese hamster ovary (CHO) cells expressing the rat or human orexin-1 receptor or the human orexin-2 receptor, are grown in Iscove's modified DMEM containing 2 mM L-glutamine, […], 1% hypoxanthine-thymidine supplement, 100 U/ml penicillin, 100 μg/ml streptomycin and 10% heat-inactivated fetal calf serum (FCS). The cells are seeded at 20,000 cells/well into Becton-Dickinson black 384-well clear bottom sterile plates coated with poly-D-lysine. All reagents were from GIBCO-Invitrogen Corp. The seeded plates are incubated overnight at 37° C. and 5% CO2. Ala-6,12 human orexin-A as the agonist is prepared as a 1 mM stock solution in 1% bovine serum albumin (BSA) and diluted in assay buffer (HBSS containing 20 mM HEPES, 0.1% BSA and 2.5 mM probenecid, pH7.4) for use in the assay at a final concentration of 70 pM. Test compounds are prepared as 10 mM stock solution in DMSO, then diluted in 384-well plates, first in DMSO, then assay buffer. On the day of the assay, cells are washed 3 times with 100 μl assay buffer and then incubated for 60 min (37° C., 5% CO2) in 60 μl assay buffer containing 1 μM Fluo-4AM ester, 0.02% pluronic acid, and 1% BSA. The dye loading solution is then aspirated and cells are washed 3 times with 100 μl assay buffer. 30 μl of that same buffer is left in each well. Within the Fluorescent Imaging Plate Reader (FLIPR, Molecular Devices), test compounds are added to the plate in a volume of 25 μl, incubated for 5 min and finally 25 μl of agonist is added. Fluorescence is measured for each well at 1 second intervals for 5 minutes and the height of each fluorescence peak is compared to the height of the fluorescence peak induced by 70 pM Ala-6,12 orexin-A with buffer in place of antagonist. For each antagonist, IC50 value (the concentration of compound needed to inhibit 50% of the agonist response) is determined. Alternatively, compound potency can be assessed by a radioligand binding assay (described in Bergman et. al. Bioorg. Med. Chem. Lett. 2008, 18, 1425-1430) in which the inhibition constant (Ki) is determined in membranes prepared from CHO cells expressing either the OX1 or OX2 receptor. The intrinsic orexin receptor antagonist activity of a compound which may be used in the present invention may be determined by these assays.

[2] = target: human orexin-2 receptor (Homo sapiens (Human), UniProt O43614); assay: FLIPR Ca2+ Flux Assay, hOX2R; assay type: cell-based; conditions: CHO cells expressing human orexin-2 receptor; agonist 70 pM Ala-6,12 human orexin-A
Description: as §1

Chain of human orexin-1 receptor (O43613 whole entry): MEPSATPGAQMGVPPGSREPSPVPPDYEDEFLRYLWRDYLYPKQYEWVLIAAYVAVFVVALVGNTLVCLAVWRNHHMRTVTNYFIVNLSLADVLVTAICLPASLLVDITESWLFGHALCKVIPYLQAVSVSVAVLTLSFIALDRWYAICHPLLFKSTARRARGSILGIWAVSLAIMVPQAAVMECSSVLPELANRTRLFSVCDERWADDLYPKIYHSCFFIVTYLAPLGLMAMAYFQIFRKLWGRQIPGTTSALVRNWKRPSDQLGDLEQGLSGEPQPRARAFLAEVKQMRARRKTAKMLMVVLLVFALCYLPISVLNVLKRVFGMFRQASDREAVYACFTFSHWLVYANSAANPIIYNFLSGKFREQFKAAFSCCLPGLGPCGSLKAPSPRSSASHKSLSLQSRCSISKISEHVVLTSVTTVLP
Chain of human orexin-2 receptor (O43614 whole entry): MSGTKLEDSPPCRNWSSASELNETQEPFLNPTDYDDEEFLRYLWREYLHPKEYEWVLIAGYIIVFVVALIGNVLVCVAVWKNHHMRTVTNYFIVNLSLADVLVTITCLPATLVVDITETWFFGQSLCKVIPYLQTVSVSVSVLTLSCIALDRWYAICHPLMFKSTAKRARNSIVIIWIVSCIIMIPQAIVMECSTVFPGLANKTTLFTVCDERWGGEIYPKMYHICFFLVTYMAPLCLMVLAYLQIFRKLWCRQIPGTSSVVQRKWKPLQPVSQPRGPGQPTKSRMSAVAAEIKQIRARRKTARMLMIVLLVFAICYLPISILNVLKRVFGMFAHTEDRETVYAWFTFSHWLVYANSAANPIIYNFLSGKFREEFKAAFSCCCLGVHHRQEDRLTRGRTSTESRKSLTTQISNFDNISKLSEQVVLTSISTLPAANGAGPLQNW

| SMILES | IC50 [1] [µM] | IC50 [2] [µM] |
| --- | --- | --- |
| CCN(CCc1nc(C(C)(C)O)c(C)o1)C(=O)c1ccccc1-c1ccccc1 [Example 1, N-Ethyl-N-(2-(4-(2-hydroxypropan-2-yl)-5-methyloxazol-2-yl)ethyl)-[1,1′-biphenyl]-2-carboxamide] | 1.83 | 0.029 |
| CCN(CCc1nc(C(C)(C)O)c(C)o1)C(=O)c1cccc(C)c1-n1nccn1 [Example 2, N-Ethyl-N-{2-[4-(1-hydroxy-1-methylethyl)-5-methyl-1,3-oxazol-2-yl]ethyl}-3-methyl-2-(2H-1,2,3-triazol-2-yl)benzamide] | > 10 | 0.054 |
| CCN(CCc1nc(C(C)(C)O)c(C)o1)C(=O)c1cccc(F)c1-n1nccn1 [Example 3, N-Ethyl-3-fluoro-N-{2-[4-(1-hydroxy-1-methylethyl)-5-methyl-1,3-oxazol-2-yl]ethyl}-2-(2H-1,2,3-triazol-2-yl)benzamide] | > 10 | 0.044 |
| CCN(CCc1nc(C(C)(C)O)c(C)o1)C(=O)c1ccc(F)cc1-n1nccn1 [Example 4, N-Ethyl-4-fluoro-N-{2-[4-(1-hydroxy-1-methylethyl)-5-methyl-1,3-oxazol-2-yl]ethyl}-2-(2H-1,2,3-triazol-2-yl)benzamide] | > 10 | 0.048 |
| CCN(CCc1nc(C(C)(C)O)c(C)o1)C(=O)c1ccccc1C1CC1 [Example 5, 2-Cyclopropyl-N-ethyl-N-{2-[4-(1-hydroxy-1-methylethyl)-5-methyl-1,3-oxazol-2-yl]ethyl}benzamide] | > 10 | 0.387 |
| CCN(CCc1nc(C(C)(C)O)c(C)o1)C(=O)c1cccnc1-n1cccn1 [Example 6, N-Ethyl-N-{2-[4-(1-hydroxy-1-methylethyl)-5-methyl-1,3-oxazol-2-yl]ethyl}-2-(1H-pyrazol-1-yl)pyridine-3-carboxamide] | > 10 | 0.101 |
| CCN(CCc1nc(C(C)(C)O)c(C)o1)C(=O)c1cc(F)ccc1-n1nccn1 [Example 7, N-Ethyl-5-fluoro-N-{2-[4-(1-hydroxy-1-methylethyl)-5-methyl-1,3-oxazol-2-yl]ethyl}-2-(2H-1,2,3-triazol-2-yl)benzamide] | > 10 | 0.062 |
| CCN(CCc1nc(C(C)(C)O)c(C)o1)C(=O)c1ccc(OC)cc1-n1nccn1 [Example 8, N-Ethyl-N-{2-[4-(1-hydroxy-1-methylethyl)-5-methyl-1,3-oxazol-2-yl]ethyl}-4-methoxy-2-(2H-1,2,3-triazol-2-yl)benzamide] | > 10 | 0.082 |
| CCN(CCc1nc(C(C)(C)O)c(C)o1)C(=O)c1ccccc1-n1ncnn1 [Example 9, N-ethyl-N-{2-[4-(1-hydroxy-1-methylethyl)-5-methyl-1,3-oxazol-2-yl]ethyl}-2-(2H-tetrazol-2-yl)benzamide] | > 10 | 0.491 |
| CCN(CCc1nc(C(C)(C)O)c(C)o1)C(=O)c1cccnc1OCC(F)F [Example 10, 2-(2,2-difluoroethoxy)-N-ethyl-N-{2-[4-(1-hydroxy-1-methylethyl)-5-methyl-1,3-oxazol-2-yl]ethyl}pyridine-3-carboxamide] | > 10 | 0.224 |
| CCN(CCc1nc(C(C)(C)O)c(C)o1)C(=O)c1ccccc1C1(C#N)CC1 [Example 10b, 2-(1-cyanocyclopropyl)-N-ethyl-N-{2-[4-(1-hydroxy-1-methylethyl)-5-methyl-1,3-oxazol-2-yl]ethyl}benzamide] | 1.76 | 0.026 |
| CCN(CCc1nc(C(C)(C)O)c(C)o1)C(=O)c1ccccc1-c1nc(C)no1 [Example 10c, N-ethyl-N-{2-[4-(1-hydroxy-1-methylethyl)-5-methyl-1,3-oxazol-2-yl]ethyl}-2-(3-methyl-1,2,4-oxadiazol-5-yl)benzamide] | > 10 | 0.212 |
| CCN(CCc1nc(C(C)(C)O)c(C)o1)C(=O)c1sccc1-n1nccn1 [Example 10d, N-ethyl-N-{2-[4-(1-hydroxy-1-methylethyl)-5-methyl-1,3-oxazol-2-yl]ethyl}-3-(2H-1,2,3-triazol-2-yl)thiophene-2-carboxamide] | > 10 | 0.435 |
| CCN(CCc1nc(C(C)(C)O)c(C)o1)C(=O)c1ccccc1-n1nccn1 [Example 11, N-Ethyl-N-{2-[4-(1-hydroxy-1-methylethyl)-5-methyl-1,3-oxazol-2-yl]ethyl}-2-(2H-1,2,3-triazol-2-yl)benzamide] | 2.59 | 0.027 |
| CCN(CCc1nc(C(C)(C)O)c(C)o1)C(=O)c1ccsc1-n1nccn1 [Example 12, N-Ethyl-N-{2-[4-(1-hydroxy-1-methylethyl)-5-methyl-1,3-oxazol-2-yl]ethyl}-2-(2H-1,2,3-triazol-2-yl)thiophene-3-carboxamide] | > 10 | 0.063 |
| CCN(CCc1nc(C(C)(C)O)c(C)o1)C(=O)c1cccnc1OCC(F)(F)F [Example 13, N-Ethyl-N-{2-[4-(1-hydroxy-1-methylethyl)-5-methyl-1,3-oxazol-2-yl]ethyl}-2-(2,2,2-trifluoroethoxy)pyridine-3-carboxamide] | > 10 | 0.098 |
| CCN(CCc1nc(C(C)(C)O)c(C)o1)C(=O)c1ccccc1CC(F)(F)F [Example 14, N-Ethyl-N-{2-[4-(1-hydroxy-1-methylethyl)-5-methyl-1,3-oxazol-2-yl]ethyl}-2-(2,2,2-trifluoroethyl)benzamide] | > 10 | 0.211 |
| CCOc1ccccc1C(=O)N(CC)CCc1nc(C(C)(C)O)c(C)o1 [Example 15, 2-Ethoxy-N-ethyl-N-{2-[4-(1-hydroxy-1-methylethyl)-5-methyl-1,3-oxazol-2-yl]ethyl}benzamide] | > 10 | 0.223 |
| CCN(CCc1nc(C(C)(C)O)c(C)o1)C(=O)c1ccccc1C(=O)OC [Example 16, Methyl 2-(ethyl{2-[4-(1-hydroxy-1-methylethyl)-5-methyl-1,3-oxazol-2-yl]ethyl}carbamoyl)benzoate] | > 10 | 0.63 |
| CCN(CCc1nc(C(C)(C)O)c(C)o1)C(=O)c1ccccc1-n1cccn1 [Example 17, N-Ethyl-N-{2-[4-(1-hydroxy-1-methylethyl)-5-methyl-1,3-oxazol-2-yl]ethyl}-2-(1H-pyrazol-1-yl)benzamide] | > 10 | 0.292 |
| CCN(CCc1nc(C(C)(C)O)c(C)o1)C(=O)c1ccccc1C1(C(F)F)CC1 [Example 18b, 2-(1-(difluoro-methyl)cyclopropyl)-N-ethyl-N-(2-(4-(2-hydroxypropan-2-yl)-5-methyloxazol-2-yl)ethyl)benzamide] | > 10 | 0.145 |
| CCN(CCc1nc(C(C)(O)CC)c(C)o1)C(=O)c1ccccc1-n1nccn1 (stereo not shown) [Example 19, N-Ethyl-N-{2-[4-(1-hydroxy-1-methylpropyl)-5-methyl-1,3-oxazol-2-yl]ethyl}-2-(2H-1,2,3-triazol-2-yl)benzamide] | 3.38 | 0.012 |
| CCN(CCc1nc(C(C)(O)C(C)C)c(C)o1)C(=O)c1ccccc1-n1nccn1 (stereo not shown) [Example 20, N-Ethyl-N-{2-[4-(1-hydroxy-1,2-dimethylpropyl)-5-methyl-1,3-oxazol-2-yl]ethyl}-2-(2H-1,2,3-triazol-2-yl)benzamide] | 2.67 | 0.019 |
| C=CCN(CCc1nc(C(C)(C)O)c(C)o1)C(=O)c1ccccc1-n1nccn1 [Example 21, N-{2-[4-(1-Hydroxy-1-methylethyl)-5-methyl-1,3-oxazol-2-yl]ethyl}-N-prop-2-en-1-yl-2-(2H-1,2,3-triazol-2-yl)benzamide] | 1.01 | 0.019 |
| CCCN(CCc1nc(C(C)(C)O)c(C)o1)C(=O)c1ccccc1-n1nccn1 [Example 22, N-{2-[4-(1-Hydroxy-1-methylethyl)-5-methyl-1,3-oxazol-2-yl]ethyl}-N-propyl-2-(2H-1,2,3-triazol-2-yl)benzamide] | 2.37 | 0.019 |
| Cc1oc(CCN(CC2CC2)C(=O)c2ccccc2-n2nccn2)nc1C(C)(C)O [Example 23, N-(Cyclopropylmethyl)-N-{2-[4-(1-hydroxy-1-methylethyl)-5-methyl-1,3-oxazol-2-yl]ethyl}-2-(2H-1,2,3-triazol-2-yl)benzamide] | 2.84 | 0.021 |
